For 89 compounds, melting point results are on record in a melting point compilation (Tetko et al.; mined from patent text by program, amines drawn as free bases though some values may be those of a salt).

Each structure is given as a SMILES string.

Consider `COc1cc(C(C)(C)C)c(OC(C)=O)c(C(C)(C)C)c1`, for which the melting point (commonly the temperature, or range, at which the solid turns liquid) was found to be 96.6 °C.

As for `O=C1C=CC(=O)C2=C1OCO2`, the melting point lay in the range of 106 to 107 °C.

As to `Cc1cc(COc2cccc3c2CN(C2CCC(=O)NC2=O)C3=O)nn1C` (centres undefined), the melting point was in the range of 214 to 216 °C.

In the case of `O=C(Nc1nccs1)C1C(=O)Sc2cc(Cl)ccc21` (centres undefined), the melting point is 276 to 289 °C.

As to `Cc1nc(N2C(=O)N(Cc3ccc(F)cc3)CC2O)sc1C(=O)NCc1cccnc1` (centres undefined), the melting point fell in the range of 64 to 66 °C.

In the case of `O=c1ccc2ccc(CO)cc2o1`, the melting point fell in the range of 116 to 117 °C.

`CN(C)c1cccc(-n2cc(C(=O)NC(=N)N)c3cccnc32)c1` yielded a melting point of 269 to 271 °C.

Turning to `O=C(O)C[C@H]1C[C@@H](CCCCCCc2ccc(Cl)cc2Cl)OC1=O` (relative stereo), the melting point fell in the range of 57 to 59 °C.

`Cn1cc(Br)cc([N+](=O)[O-])c1=O` displayed a melting point of 122 to 123 °C.

For `Cc1ccccc1Cc1nc[nH]c1C`, the melting point fell in the range of 138 to 140 °C.

In turn, `CC(C)(C)NS(=O)(=O)c1ccccc1-c1ccc(NC(=O)C(C)(C)Nc2cccc(C#N)c2)cc1` showed a melting point of 190 to 193 °C.

The compound `CCC(C)N(C(=O)c1ccccc1C(N)=O)c1ccc(Cn2nnn(-c3ccc(C(F)(F)F)cc3)c2=O)cc1C` (centres undefined) returned a melting point of 217 to 218 °C.

`CC(C)(C)c1ccc(OCC(=O)N2Cc3ccc(C(=O)NCc4cccnc4)n3Cc3ccccc32)cc1` registered a melting point of 85 °C.

As to `C=CCSC1(C(F)(F)F)C=NC(=O)Nc2ccc(Cl)cc21` (centres undefined), the melting point was in the range of 147 to 149 °C.

`CC(C)(C)OC(=O)N1C(=O)[C@H](O)[C@@H]1C=Cc1ccccc1`: the melting point is 132 to 133 °C.

Take `CC(CCc1ccc(CC(=O)O)cc1)CC(=O)O` (centres undefined): the melting point lay in the range of 100 to 102 °C.

As for `COc1ccc(-n2cnc(-c3cc(OC)cc(OC)c3)c2-c2ccc(OC)c(O)c2)cc1`, the melting point lay in the range of 131 to 134 °C.

In the case of `NCc1noc(-c2ncn3c2[C@@H]2CCN2C(=O)c2c(Cl)cccc2-3)n1`, the melting point fell in the range of 206 to 208 °C.

On to `O=C(NCCc1c[nH]cn1)c1[nH]c2ccc(Cl)cc2c1S(=O)(=O)c1ccccc1`, for which the melting point fell in the range of 220 to 222 °C.

In turn, `CCNC(=O)CCCNC(=O)CCCNC(=O)OC(C)(C)C` registered a melting point of 134 to 135 °C.

For the compound `CCC(N)=C(C(C)=O)C(=O)N(CCN(C)C)c1cccc(F)c1`, the melting point lay within 96 to 97 °C.

Take `c1cc2c3c(c1)nc(SCc1ccncc1)n3CCC2`: the melting point is 105 to 107 °C.

`Cc1cc(C(=O)NC2CC(C)(C)NC(C)(C)C2)c(C)o1` displayed a melting point of 116 to 118 °C.

The compound `NC(=O)c1cccc2c1C1(COc3cc4c(cc31)OCCO4)CN2Cc1ccccn1` (centres undefined) registered a melting point of 214 to 215 °C.

The compound `Cc1cccc2c(-c3ccc(Cl)cc3Cl)onc12` showed a melting point of 94 to 95 °C.

`Cn1c(-c2ccc(Br)cc2)cnc1[C@H](Cc1ccccn1)N(C=O)c1cc2cc(Cl)ccc2o1` registered a melting point of 185 to 188 °C.

`O=c1cc(N2CCNCC2)oc2c1ccc1ccccc12` gave a melting point of 208 to 209 °C.

In the case of `CCCCc1ccc(-c2ccc(OC)cc2F)nc1`, the melting point is 23.3 °C.

As for `CCCN1C(=O)N(C2CCN(Cc3cccc(CO)c3)CC2)C(c2ccccc2)c2ccccc21` (centres undefined), the melting point fell in the range of 108 to 112 °C.

`Cc1ccc(C2CC(=O)CC(c3ccc(C)cc3)N2C)cc1` (centres undefined): the melting point fell in the range of 105 to 107 °C.

For `CCOC(=O)Cc1nc(-c2ccc(F)cc2)oc1C(C)C`, the melting point fell in the range of 59 to 60 °C.

`CC(C)C(OC(=O)/C=C/c1ccccc1)OC(=O)NC1(C(=O)O)CC1` (centres undefined) returned a melting point of 148 to 150 °C.

In the case of `CC1(C)CC(=O)N(CCCCN2CCN(c3nsc4ccccc34)CC2)C(=O)C1`, the melting point was 146 to 147 °C.

As to `COC(=O)c1ccc2nc3n(c(=O)c2c1)CCC3=Cc1ccccc1C`, the melting point lay in the range of 181 to 183 °C.

Compound `COP(=O)(Cc1nc2ccccc2nc1CP(=O)(OC)OC)OC` returned a melting point of 115 to 116 °C.

As for `CCc1nc2c(N)nc3ccccc3c2n1CCCCS(C)(=O)=O`, the melting point was in the range of 182 to 185 °C.

Regarding `O=C(c1cccc2ccccc12)P1(=O)Oc2ccccc2-c2ccccc21` (centres undefined), the melting point was in the range of 149 to 151 °C.

`Cc1nnc2n1-c1ccc([N+](=O)[O-])cc1C(c1ccccc1Cl)=CC2` had a melting point of 225 to 227 °C.

Turning to `CC(C)(C)OC(=O)NCCc1cccc(C#N)n1`, the melting point was in the range of 79.1 to 80.3 °C.

Compound `CN1CCCC(c2nc(-c3ccncc3)c(-c3ccc(F)cc3)[nH]2)C1` (centres undefined) had a melting point of 195 to 197 °C.

In the case of `O=C1c2ccccc2C(=O)N1Cc1cc(Cl)ccc1OCc1cccnc1`, the melting point is 173 to 175 °C.

`CC(C)N(Cc1ccc2cc(NC(=O)c3ccc(-c4ccc(Cl)cc4)nc3)ccc2n1)C(C)C`: the melting point is 201 to 203 °C.

`CCC(Cc1ccc(OCCN2CCCCC2)cc1)(C(=O)NO)S(=O)(=O)c1ccc(OC)cc1` (centres undefined) returned a melting point of 75 °C.

`CC(=O)Nc1nc(N2CCc3ccccc3CC2)c([N+](=O)[O-])c(=O)[nH]1` returned a melting point above 200 °C.

On to `O=[N+]([O-])c1ccc2ncnc(Nc3cc(Cl)c(Cl)cc3F)c2c1`, for which the melting point lay within 270 to 271 °C.

In turn, `COC(=O)c1cc(N2C(=O)C3C4CC4CN3C2=O)c(F)cc1Cl` (centres undefined) gave a melting point of 59 to 62 °C.

Compound `COC(=O)C=C1Oc2ccccc2Oc2ccccc21` returned a melting point of 81 to 83 °C.

In turn, `COc1ccccc1N1CCC(CNC(=O)Nc2c(C(C)C)cc(N)cc2C(C)C)(c2cccc(OCCCO)c2)CC1` displayed a melting point of 203 to 205 °C.

`CS(=O)(=O)c1ccc(-c2c(-c3ccccc3)c(=O)c2=O)cc1` returned a melting point of 139 to 140 °C.

`CC(C)C[C@H](NC(=O)[C@H](Cc1c[nH]cn1)NC(=O)[C@H](Cc1cccc2ccccc12)NC(=O)OCc1ccccc1)[C@@H](O)CC(N)=O` yielded a melting point of 158 to 161 °C.

Take `CCOC(=O)CCc1cccc2c(=O)c3cc(C(=O)OC)c(OCCCCC=Cc4ccc(OC)cc4)cc3oc12`: the melting point lay within 107 to 109 °C.

Compound `COC(=O)C1=Cc2cc(-c3ccc(F)cc3)ccc2S(=O)(=O)CC1` displayed a melting point of 180 to 183 °C.

Turning to `CCOC(=O)c1ccc(OCCCCCCc2cc(C)no2)cc1`, the melting point turned out to be 51 °C.

Regarding `O=C1c2ccccc2-c2ccc(-c3nc(CCl)co3)cc21`, the melting point lay in the range of 188 to 189 °C.

As to `O=C(NCC(c1ccccc1)c1ccccc1)N1CCC(C(=O)O)(c2ccccc2)CC1`, the melting point fell in the range of 173 to 174 °C.

`CNc1ccc(CN2CCN(C(c3ccccc3)c3ccccc3)CC2)cc1[N+](=O)[O-]` showed a melting point of 121 °C.

In turn, `Cc1ccccc1Nc1nc(NCc2ccccc2)nc2ccccc12` displayed a melting point of 127 to 130 °C.

Compound `COc1ccc2c(n1)C1(CO2)C(=O)N(Cc2ccc(C(F)(F)F)o2)c2ccc(F)cc21` (centres undefined) showed a melting point of 158 to 160 °C.

Turning to `CC(=O)Oc1ccc(N2CCN(C(C)=O)CC2)c(Br)c1`, the melting point amounted to 75 °C.

`CC(=O)Nc1cc2c(cc1[N+](=O)[O-])N(C(C)=O)CCO2`: the melting point is 199 to 202 °C.

In turn, `O=C(Cn1ccnc1)c1nccs1` showed a melting point of 109 to 112 °C.

The compound `NS(=O)(=O)c1cc2cccnc2s1` had a melting point of 223 to 225 °C.

The compound `N#CC1CN1C(=S)NC(=O)c1ccccc1` (centres undefined) returned a melting point of 135 to 140 °C.

The compound `Cc1ccc(-c2cn(C)cc(-c3ccc(Cl)c(Cl)c3)c2=O)cc1C` showed a melting point of 150 to 152 °C.

In turn, `O=C(O)CCc1oc(-n2cnc3ccccc32)nc1-c1ccc(C(F)(F)F)cc1` came in with a melting point of 224 to 226 °C.

Consider `CCOC(=O)C1C(=O)CC(C)(O)C(C(=O)OCC)C1c1ccc2c(C)c(C)oc2c1` (centres undefined), for which the melting point was 183 to 185 °C.

`COC(=O)c1ccc(OCCCO/N=C/c2cn(Cc3ccccc3)c3ccccc23)cc1O` gave a melting point of 100 to 102 °C.

In turn, `c1ccc(Cn2c(NC3CCN(C4CCCCC4)CC3)nc3ccccc32)cc1` yielded a melting point of 143 °C.

With `CCOC(=O)/C=C/c1sc(-n2cnc3ccccc32)nc1C(C)C`, the melting point lay within 229 to 230 °C.

`COc1ccc(CNC(SC)=C(C#N)C#N)cc1`: the melting point is 100 to 101 °C.

For `CC(Cc1c[nH]c2ccccc12)NC(=O)C=C1CCC(c2cccc(F)c2)(N(C)C)CC1` (centres undefined), the melting point lay within 163 to 166 °C.

`CC(C)N1CCC(Oc2ccc3[nH]ncc3c2)CC1` came in with a melting point of 125 to 126 °C.

As for `Nc1ncc(Cl)nc1Cl`, the melting point was in the range of 117 to 118 °C.

As to `C#CC1(c2ccc(OC)c(OC3CCCC3)c2)CCC2(CC1)OCCO2`, the melting point lay in the range of 53.5 to 55 °C.

Compound `CCCCOC(=O)c1ccc2ccc(C)nc2c1O` registered a melting point of 50 °C.

`Cc1ccc(CC(=O)O)c(OCc2ccc(OCc3nc(-c4ccccc4)oc3C)cc2)n1` showed a melting point of 138 to 139 °C.

`COc1ccc(-c2nc3sccn3c2/C=C/C(=O)c2cccs2)cc1` displayed a melting point of 169 to 172 °C.

Compound `O=C(c1cccs1)c1cnn2c(-c3cccc(NCc4ccco4)c3)ccnc12` yielded a melting point of 124 to 128 °C.

`N#Cc1ncc(Cl)cc1F`: the melting point was in the range of 72 to 73 °C.

`O=C(Cl)c1cc(Oc2ccc(Br)cc2)cc(C(=O)Cl)c1`: the melting point is 80 to 81 °C.

`COc1cc(C)c(CC(=O)O)cc1C(C)C` came in with a melting point of 107 to 109 °C.

Compound `CN(C)C1(c2ccccc2Cl)C(=O)Nc2ccc(Cl)cc21` (centres undefined) yielded a melting point of 169 to 172 °C.

`CC(C)(C)c1nc(-c2nn(-c3ccc(F)cc3F)c3c2C2CCC3C2)no1` (centres undefined) came in with a melting point of 119 to 121 °C.

`COC1CN(C(C)CC(C(=O)N(C)C)(c2ccccc2)c2ccccc2)CCC1NC(=O)c1cccc(C(F)(F)F)c1` (centres undefined) displayed a melting point of 198 °C.

Compound `Cc1nc(-c2ccccc2)nc(Cl)c1C` displayed a melting point of 120 to 122 °C.

The compound `CC(C)(C)c1cc(SC[Si](C)(C)C)cc(C(C)(C)C)c1O` displayed a melting point of 100 to 101 °C.

`O=C1Cc2ccccc2N1c1ccsc1` returned a melting point of 62 to 67 °C.

As for `CC(=O)N[C@H]1CC[C@H](ON2C(=O)c3ccccc3C2=O)CC1`, the melting point was in the range of 210 to 213 °C.

`Cc1cccc(CC(Nc2ccccc2)C(=O)NC(C#N)COCc2cccc(-c3nnn[nH]3)c2)c1` (centres undefined) showed a melting point of 120 to 122 °C.
